# Several values for one entry are separate records, joined by “and”; a condition that tells them apart may be missing. Equal entries are not always repeated.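 Test compounds were applied to cells in 96-well plates for 48 hours at 5 doses. GI50 = concentration required for 50% inhibition of growth. TGI: total growth inhibition.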
# Experiments:
# Experiment in all cases: inhibition of tumour cell growth, NCI panel, 48 h
# A549 NSCLC = tested on: A549 NSCLC
# EKVX NSCLC = tested on: EKVX NSCLC
# M14 melanoma = tested on: M14 melanoma
# NCI-H226 lung = tested on: NCI-H226 lung
# NCI-H460 lung = tested on: NCI-H460 lung
# OVCAR-3 ovarian = tested on: OVCAR-3 ovarian
# RXF 393 renal = tested on: RXF 393 renal
# SF-539 CNS = tested on: SF-539 CNS
# U251 CNS = tested on: U251 CNS
# UACC-62 melanoma = tested on: UACC-62 melanoma
Compound,GI50 (A549 NSCLC) [µM],TGI (A549 NSCLC) [µM],GI50 (EKVX NSCLC) [µM],TGI (EKVX NSCLC),GI50 (M14 melanoma) [µM],TGI (M14 melanoma),GI50 (NCI-H226 lung),TGI (NCI-H226 lung),GI50 (NCI-H460 lung),TGI (NCI-H460 lung),GI50 (OVCAR-3 ovarian),TGI (OVCAR-3 ovarian),GI50 (RXF 393 renal),TGI (RXF 393 renal),GI50 (SF-539 CNS),TGI (SF-539 CNS),GI50 (U251 CNS),TGI (U251 CNS),GI50 (UACC-62 melanoma),TGI (UACC-62 melanoma)
CSc1nc2sc3cc(Cl)ccc3n2c(=N)c1C#N,12.2,> 100,10.7,> 100 µM,> 54.7,> 100 µM,12.8 µM,> 100 µM,> 79700 nM,> 100 µM,11.8 µM,> 100 µM,19.2 µM,> 100 µM,15.2 µM,> 100 µM,> 55 µM,> 100 µM,17.7 µM,> 100 µM
COc1ccc2c(c1)CC[C@@H]1[C@@H]2CC[C@]2(C)C(c3ccco3)=C(C=O)C[C@@H]12,26.1,65.1,20.1,48.7 µM,5.24,30.5 µM,21.6 µM,63.5 µM,5750 nM,35.7 µM,2.08 µM,12.4 µM,0.484 µM,27.6 µM,20 µM,40.6 µM,4.13 µM,18.1 µM,3.82 µM,16.3 µM
CC1=C(C(=O)NCc2ccccc2)C(c2ccccc2[N+](=O)[O-])C(C(=O)NCc2ccccc2)=C(C)N1,,68.1,,30.1 µM,,23.9 µM,,30.4 µM,,31.4 µM,,19.2 µM,,23.4 µM,,25.8 µM,,22.8 µM,,22.9 µM
O=C(NO)C12C3C4C1C1C2C3C41C(=O)NO (centres undefined),,> 100,,> 100 µM,,> 100 µM,,> 100 µM,,> 100 µM,,> 100 µM,,> 100 µM,,> 100 µM,,> 100 µM,,> 100 µM
Cc1cc(O)cc2c1O[C@@]1(C)CCC3[C@@]4(C)CC[C@H](O)C(C)(C)C4CC[C@@]3(C)[C@H]1C2 (some centres undefined),,19.6,,31.4 µM,,24.3 µM,,24.9 µM,,17.5 µM,,19.8 µM,,13.3 µM,,6.43 µM,,11.5 µM,,21.9 µM
C=C1C(=O)O[C@H]2[C@H]1CC/C(COC(=O)NCc1c[nH]c3ccc(Cl)cc13)=C\CC[C@@]1(C)O[C@@H]21,1.7,3.43,1.58,3 µM,1.4,2.91 µM,1.61 µM,3.09 µM,1960 nM,3.96 µM,1.11 µM,2.7 µM,1.37 µM,2.76 µM,1.58 µM,3.04 µM,1.66 µM,3.08 µM,1.34 µM,2.76 µM
Nc1ccn(C2CC(CO)C(O)C2O)c(=O)n1 (centres undefined),,> 57.7,,> 57.7 µM,,> 57.7 µM,,> 57.7 µM,,> 57.7 µM,,> 57.7 µM,,> 57.7 µM,,> 57.7 µM,,> 57.7 µM,,> 57.7 µM
NS(=O)(=O)c1ccc(N2N=C3c4ccccc4CC3C2c2ccc(Cl)cc2)cc1 (centres undefined),10.8,34,14.1,58.9 µM,10.1,36.1 µM,10.9 µM,38.7 µM,19700 nM,41.8 µM,17.3 µM,34.7 µM,5.07 µM,19.7 µM,9.07 µM,30.8 µM,20.2 µM,42.5 µM,5.97 µM,22.7 µM
NC1=N/C(=C2/CCNC(=O)c3[nH]c(Br)cc32)C(=O)N1,,> 100,,> 100 µM,,> 100 µM,> 64 µM and 21.8 µM,> 100 µM,,> 100 µM,4.29 µM and 10.7 µM,43 µM and 40.1 µM,,> 100 µM,4.29 µM and 13 µM,17.3 µM and 35.5 µM,,> 100 µM,,> 100 µM
CC(C)=CC(=O)Cc1nc2cc(C)c(C)cc2[nH]c1=O,,> 100,,> 100 µM,,> 100 µM,,> 100 µM,,> 100 µM,,> 100 µM,,> 100 µM,,> 100 µM,,> 100 µM,,> 100 µM
CC1OC(OCC2COC(O)(Oc3c(-c4ccc(O)c(O)c4)oc4cc(O)cc(O)c4c3=O)C(O)C2O)C(O)C(O)C1O (centres undefined),,> 100,,> 100 µM,,> 100 µM,,> 100 µM,,> 100 µM,,> 100 µM,,> 100 µM,,> 100 µM,,> 100 µM,,> 100 µM
O=C1OC(O)C(Oc2ccc(Cl)cc2)=C1Cl (centres undefined),,> 100,,> 100 µM,,> 100 µM,,> 100 µM,,> 100 µM,,> 100 µM,,> 100 µM,,> 100 µM,,> 100 µM,,> 100 µM
CO[C@@H]1[C@H](OC(=O)NC(=O)CCl)CC[C@]2(CO2)[C@H]1[C@@]1(C)O[C@@H]1CC=C(C)C,4.25,44.2,22.4,35.8 µM and 52.4 µM,,32.3 µM and 40.5 µM,23.7 µM,50.4 µM and 50.3 µM,755 nM and 2600 nM,24.2 µM and 49.6 µM,8.68 µM,21.3 µM and 30.7 µM,4.08 µM and 23.7 µM,27.9 µM and 131 µM,21.3 µM,23.8 µM and 46.9 µM,4.98 µM and 0.575 µM,20.8 µM and 13.3 µM,6.21 µM and 4.01 µM,26 µM and 24.1 µM
COc1ccc(C(c2c(O)c3ccccc3n(C)c2=O)c2c(O)c3ccccc3n(C)c2=O)cc1,,> 100,,> 100 µM,,> 100 µM,,69.5 µM,,> 100 µM,,> 100 µM,,> 100 µM,,63.3 µM,,44.2 µM,,98 µM
CC(C)(C)c1ccc(C(O)c2ccc(C(C)(C)C)cc2)cc1,,27.2,,32.3 µM,,28.7 µM,,19.5 µM,,26.6 µM,,27.6 µM,,31.2 µM,,31.5 µM,,25.8 µM,,30.2 µM
O=C(/C=C\c1ccc(Cl)cc1Cl)c1cccs1,,> 100,,34.3 µM,,35.1 µM,,51.3 µM,,89.5 µM,,89.7 µM,,44.3 µM,,36.5 µM,,,,28.3 µM
O=C(Nc1nc2ncn(CC(COc3ccccc3)OC(=O)c3ccccc3)c2c(=O)[nH]1)c1ccccc1 (centres undefined),,> 100,,> 100 µM,,> 100 µM,,> 100 µM,,,,> 100 µM,,> 100 µM,,> 100 µM,,> 100 µM,,> 100 µM
COc1ccc(C2=NN(C(C)=O)C(c3cn(-c4ccccc4)nc3-c3ccc(Cl)cc3)C2)cc1 (centres undefined),,,> 100,> 100 µM,,,> 100 µM,> 100 µM,,,> 100 µM,> 100 µM,10.5 µM,> 100 µM,25.4 µM,> 100 µM,7.44 µM,> 100 µM,> 100 µM,> 100 µM

# Source: PubChem BioAssay (NCI)
